Measurements: patent US11467168B2, “Methods of identifying a moldulator of otopetrin-mediated proton translocation activity” (UNIVERSITY OF SOUTHERN CALIFORNIA, priority 2017, dated 2022)
Several values for one entry are separate records, joined by “and”; a condition that tells them apart may be missing. Identical values can stand only once.

Biological target: T1, Otop1 (Mus musculus, UniProt Q80VM9, G396A)
T1 construct: expressed in transfected cells; host or cells: HEK-293 cells (CRL-1573, ATCC), transient co-transfection with GFP, cDNA in pcDNA3
T1 sequence (Q80VM9 1-600 G396A): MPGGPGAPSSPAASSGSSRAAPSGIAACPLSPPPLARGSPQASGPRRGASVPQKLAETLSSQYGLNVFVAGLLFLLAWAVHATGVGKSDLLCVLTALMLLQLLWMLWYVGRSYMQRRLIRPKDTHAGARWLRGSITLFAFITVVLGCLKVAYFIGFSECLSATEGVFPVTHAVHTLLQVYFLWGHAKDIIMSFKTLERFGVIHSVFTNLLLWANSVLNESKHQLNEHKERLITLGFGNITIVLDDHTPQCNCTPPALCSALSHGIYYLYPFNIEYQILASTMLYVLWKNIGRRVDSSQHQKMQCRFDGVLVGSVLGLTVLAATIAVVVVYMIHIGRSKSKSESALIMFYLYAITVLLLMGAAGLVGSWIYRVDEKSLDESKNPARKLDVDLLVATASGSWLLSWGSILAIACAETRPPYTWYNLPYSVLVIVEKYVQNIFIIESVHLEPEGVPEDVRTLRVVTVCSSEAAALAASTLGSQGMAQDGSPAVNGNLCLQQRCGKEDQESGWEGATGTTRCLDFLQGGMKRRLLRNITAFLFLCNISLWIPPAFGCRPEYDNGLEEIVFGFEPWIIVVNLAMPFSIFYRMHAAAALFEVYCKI
Test: Zn2+ inhibition of Otop1 currents, whole-cell patch clamp in transfected HEK-293 cells
Type: cell-based
Conditions: Otop1-transfected HEK-293 cells, currents evoked by pH 5.5, Hill equation fit
Excerpt: The transition metal Zn^2+ is a potent inhibitor of Hv1, binding to two external histidine residues that regulate gating^7,31,32. […] To gain insights into structural elements involved in ion permeation by Otop1, we measured its sensitivity to inhibition by Zn^2+.
Otop and GFP (5:1) were co-transfected into HEK-293 cells (CRL-1573, ATCC) using TransIT-LT1 Transfection Reagent (Mirus Bio Corporation, Madison, Wis.). Patch clamp recording and imaging experiments on GFP-positive cells were performed at room temperature ˜24-48 h after transfection.
Whole-cell patch clamp recording was performed as previously described^49. In brief, recordings were made with an Axopatch 200A or Axopatch 200B amplifier, digitized with a Digidata 1322a 16-bit data acquisition system, acquired with pClamp 8.2, and analyzed with Clampfit 8.2 (Molecular Devices, Palo Alto, Calif.). Records were sampled at 5 kHz and filtered at 1 kHz. Patch pipettes with resistance of 2-4 MΩ were fabricated from borosilicate glass, and only recordings in which a gigaohm seal was achieved were used in the analysis. For most experiments, after the whole cell configuration was achieved, the membrane potential was held at −80 mV, or ramped from −80 mV to +80 mV (1V/s) once per second. […]

[Cl-].[Cl-].[Zn+2] [Zn^2+, ZnCl2]
Hill coefficient: 0.89 and 0.89±0.06
IC50: 190 µM
